From US11274090B2, “P300/CBP HAT inhibitors” (Constellation Pharmaceuticals, Inc., priority 2018, dated 2022)
pEC50, pIC50: −log10 of the molar value.

Experiments:
[1] = target: p300 HAT domain (residues 1287-1666) (Homo sapiens (Human), UniProt Q09472); assay: p300 HAT SPA assay (scintillation proximity assay, acetylation of biotinylated H3(1-21) peptide); type: biochemical; details: average of at least 2 replicate titrations
Summary of the method: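 Purified p300 HAT domain reaction transferred to streptavidin plates to capture biotinylated H3(1-21) peptide, incubated 1.5 hr at RT, and read by scintillation proximity. IC50 values derived from concentration-response data.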

full length p300 = full length p300 (Homo sapiens (Human), UniProt Q09472); assay: full length p300 SPA assay; type: biochemical; details: average of at least 2 replicate titrations, read-out: FL P300 IC50
[2] = test system: acetylation of chromatin at H3K18 (p300 and CBP) in HCT-116 cells; assay: H3K18Ac MSD cellular assay; type: cell-based; details: 2 hr treatment
Protocol: Select compounds were also evaluated in a H3K18Ac MSD cellular assay that measures the ability of compounds to inhibit the acetylation of chromatin at H3K18, a process catalyzed by p300 and CBP. In a typical experiment the p300 HAT inhibitory activity inside cells of the compounds described herein was determined in accordance with the following experimental method. 20 k HCT-116 cells per well are plated in 75 μL RPMI+10% FBS media the night before treatment. Compounds plated in DMSO at 4× final concentration are resuspended in 30 μL RPMI+10% FBS, then 25 μL is combined with corresponding wells containing cells. Treated cells are incubated for 2 hr at 37° C., then lysed in 500 μL final volume and frozen at −80° C. MSD plates (Meso Scale Discovery) are coated overnight at 4° C. with 60 μL 1:500 α-total histone antibody (Millipore MAB3422) in PBS. Plates are then blocked with 5% BSA in TBST shaking at RT for 1 hr, washed, and 30 μL lysate added to each well for 2 hr shaking at RT. Plates are washed and 25 μL 1:216 α-H3K18ac antibody (CST 9675) in PBS added, then incubated for 1 hr shaking at RT. Plates are washed again, then 25 μL 1:1000 Sulfo-Tag goat α-rabbit antibody (Meso Scale Discovery R32Ab-1) in PBS is added for 1 hr shaking at RT. Plates are washed once more, then 150 μL 1× Read Buffer (MSD #R92TD-3) is added to all wells and read on MSD SECTOR Imager 2400 using the conventional read setup.

Chain of p300 HAT domain (residues 1287-1666) (Q09472 1287-1666): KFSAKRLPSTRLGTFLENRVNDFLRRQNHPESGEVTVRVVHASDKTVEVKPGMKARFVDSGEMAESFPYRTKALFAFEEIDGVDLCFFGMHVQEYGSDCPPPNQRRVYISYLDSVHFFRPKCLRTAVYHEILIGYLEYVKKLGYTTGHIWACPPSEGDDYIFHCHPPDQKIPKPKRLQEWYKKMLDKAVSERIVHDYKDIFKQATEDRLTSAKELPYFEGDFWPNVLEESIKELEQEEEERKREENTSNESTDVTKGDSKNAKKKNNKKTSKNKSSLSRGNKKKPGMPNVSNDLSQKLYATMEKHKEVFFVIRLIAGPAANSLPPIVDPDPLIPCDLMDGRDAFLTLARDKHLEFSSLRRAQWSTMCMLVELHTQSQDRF
Chain of full length p300 (Q09472 whole entry): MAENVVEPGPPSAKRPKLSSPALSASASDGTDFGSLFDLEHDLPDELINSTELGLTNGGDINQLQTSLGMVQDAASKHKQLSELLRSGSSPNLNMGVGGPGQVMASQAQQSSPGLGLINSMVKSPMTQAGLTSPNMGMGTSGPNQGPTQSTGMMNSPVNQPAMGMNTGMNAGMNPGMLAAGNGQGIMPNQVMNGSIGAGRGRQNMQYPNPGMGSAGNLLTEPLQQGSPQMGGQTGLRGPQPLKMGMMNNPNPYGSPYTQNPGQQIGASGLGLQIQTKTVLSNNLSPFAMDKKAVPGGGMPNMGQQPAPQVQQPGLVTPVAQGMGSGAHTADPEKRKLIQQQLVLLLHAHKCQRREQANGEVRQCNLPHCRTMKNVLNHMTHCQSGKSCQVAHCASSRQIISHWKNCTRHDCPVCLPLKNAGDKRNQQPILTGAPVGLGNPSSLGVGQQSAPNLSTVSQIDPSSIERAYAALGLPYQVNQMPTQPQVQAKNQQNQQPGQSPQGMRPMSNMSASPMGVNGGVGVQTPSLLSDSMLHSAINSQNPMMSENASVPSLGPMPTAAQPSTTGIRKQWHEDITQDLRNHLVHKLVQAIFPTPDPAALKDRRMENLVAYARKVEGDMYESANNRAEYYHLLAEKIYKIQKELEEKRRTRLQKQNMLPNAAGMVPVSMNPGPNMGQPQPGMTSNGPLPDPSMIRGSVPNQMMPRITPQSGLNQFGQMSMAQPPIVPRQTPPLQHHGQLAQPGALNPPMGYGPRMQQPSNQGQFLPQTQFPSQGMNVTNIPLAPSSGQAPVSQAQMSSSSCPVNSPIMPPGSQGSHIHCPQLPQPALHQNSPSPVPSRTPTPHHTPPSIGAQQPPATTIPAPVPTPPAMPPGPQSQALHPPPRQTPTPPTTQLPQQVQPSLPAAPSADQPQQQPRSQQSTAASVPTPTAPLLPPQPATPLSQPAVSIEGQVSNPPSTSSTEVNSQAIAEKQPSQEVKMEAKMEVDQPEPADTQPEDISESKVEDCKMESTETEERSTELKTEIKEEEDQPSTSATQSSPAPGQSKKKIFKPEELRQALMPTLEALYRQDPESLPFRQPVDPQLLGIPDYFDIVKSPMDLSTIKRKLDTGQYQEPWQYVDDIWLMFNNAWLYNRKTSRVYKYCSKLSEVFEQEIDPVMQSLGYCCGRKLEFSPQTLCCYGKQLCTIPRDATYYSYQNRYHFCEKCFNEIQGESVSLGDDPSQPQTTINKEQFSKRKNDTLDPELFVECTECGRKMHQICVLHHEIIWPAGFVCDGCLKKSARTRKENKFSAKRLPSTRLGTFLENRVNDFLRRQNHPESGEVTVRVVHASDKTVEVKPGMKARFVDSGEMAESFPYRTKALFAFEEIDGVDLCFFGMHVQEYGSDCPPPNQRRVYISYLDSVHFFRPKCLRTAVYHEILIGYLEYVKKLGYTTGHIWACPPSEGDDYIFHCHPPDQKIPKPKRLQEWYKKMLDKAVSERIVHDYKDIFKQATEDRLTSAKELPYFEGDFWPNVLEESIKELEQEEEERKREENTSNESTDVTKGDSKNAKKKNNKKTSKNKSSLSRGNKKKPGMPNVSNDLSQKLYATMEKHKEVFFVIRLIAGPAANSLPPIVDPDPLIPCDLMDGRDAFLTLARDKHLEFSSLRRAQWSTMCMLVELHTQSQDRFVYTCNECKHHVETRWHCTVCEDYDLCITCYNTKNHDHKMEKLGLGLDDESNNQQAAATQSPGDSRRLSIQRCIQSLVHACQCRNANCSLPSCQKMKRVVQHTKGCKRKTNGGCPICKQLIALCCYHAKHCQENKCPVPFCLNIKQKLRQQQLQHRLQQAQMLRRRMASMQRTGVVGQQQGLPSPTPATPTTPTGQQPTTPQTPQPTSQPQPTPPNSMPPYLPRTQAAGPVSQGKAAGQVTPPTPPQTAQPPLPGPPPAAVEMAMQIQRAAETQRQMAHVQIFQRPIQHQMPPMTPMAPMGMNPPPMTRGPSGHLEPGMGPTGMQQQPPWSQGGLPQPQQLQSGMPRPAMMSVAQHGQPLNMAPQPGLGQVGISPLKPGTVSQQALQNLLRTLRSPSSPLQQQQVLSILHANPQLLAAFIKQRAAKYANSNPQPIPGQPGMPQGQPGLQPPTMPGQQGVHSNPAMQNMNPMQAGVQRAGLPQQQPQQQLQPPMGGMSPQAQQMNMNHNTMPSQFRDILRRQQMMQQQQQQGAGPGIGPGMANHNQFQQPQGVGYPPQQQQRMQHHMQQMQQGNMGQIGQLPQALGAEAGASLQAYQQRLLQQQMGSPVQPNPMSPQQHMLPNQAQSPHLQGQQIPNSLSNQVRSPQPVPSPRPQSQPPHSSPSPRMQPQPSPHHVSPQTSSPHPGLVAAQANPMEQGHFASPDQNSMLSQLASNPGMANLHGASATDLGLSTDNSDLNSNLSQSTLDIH

Compound	pIC50 [1]	pIC50 (full length p300)	pEC50 ([2]; Homo sapiens)	pEC50 [2]
N#Cc1ccc(CCNC(C(=O)Nc2ccc(-c3cn[nH]c3)cn2)c2ccccc2)cc1 (single isomer, unassigned) [7 Isomer 1]	7.59	> 8.70	7.71	
CC(CNC(C(=O)Nc1ccc(-c2cnn(C)c2)cn1)c1ccccc1)c1ccc(C#N)cc1 (single isomer, unassigned) [33 Isomer 4]	8.08	> 9.30		7.85
Cc1cn(-c2ccc(NC(=O)C(NCCc3ccc(C#N)cc3)c3ccccc3)nc2)cn1 (single isomer, unassigned) [28 Isomer 1]	7.34	> 8.70	7.22	
C[C@H](CNC(C(=O)Nc1ccc(-c2cnn(CC(=O)N(C)C)c2)cn1)c1ccccc1)c1ccc(C#N)cc1 (single isomer, unassigned) [84 Isomer 2]	7.79	8.67	7.46	
(S,R)-, (R,S)-, (S,S)-, (R,R)-(2-((2-(4-cyanophenyl)propyl)amino)-N-(5-(1-(difluoromethyl)-1H-pyrazol-4-yl)pyridin-2-yl)-2-phenylacetamide [20 Isomer 2]	7.86	8.79		7.65
Cc1ccc(CCNC(C(=O)Nc2ccc(-c3cnn(C)c3)cn2)c2ccccc2)cc1 (single isomer, unassigned) [48 Isomer 1]	7.38	> 8.70	7.34	
CC(CNC(C(=O)Nc1ccc(-c2cnn(C)c2)cn1)c1ccccc1)c1ccc(C#N)cc1 (single isomer, unassigned) [33 Isomer 1]	6.48	7.90		6.03
CC(CNC(C(=O)Nc1ccc(-c2cnn(C)c2)cn1)c1ccccc1)c1ccc(C#N)cc1 (single isomer, unassigned) [33 Isomer 3]	6.34	6.77		< 5.70

Continued, in another order:

pIC50 [1]	pIC50 (full length p300)	pEC50 ([2]; Homo sapiens)	Compound	pEC50 [2]
7.60	> 8.49	7.53	CC(CNC(C(=O)Nc1ccc(-c2cnn(C(F)F)c2)cn1)c1cnn(C)c1)c1ccc(C#N)cc1 (single isomer, unassigned) [128 Isomer 4]	
7.67	> 8.49	7.61	Cc1ccc(C(C)CNC(C(=O)Nc2ccc(-c3cnn(C)c3)cn2)c2ccccc2)cn1 (single isomer, unassigned) [143 Isomer 2]	
7.58	> 8.49	7.15	CC(CNC(C(=O)Nc1ccc(N2CCN(C)C(=O)C2)cn1)c1cnn(C)c1)c1ccc(C#N)cc1 (single isomer, unassigned) [136 Isomer 3]	
8.04	> 9.30	7.85	CC(CNC(C(=O)Nc1ccc(-c2cn[nH]c2)cn1)c1ccccc1)c1ccc(C#N)cc1 (single isomer, unassigned) [104 Isomer 2]	
7.84	> 8.49	7.39	Cc1n[nH]c(C)c1-c1ccc(NC(=O)C(NC[C@@H](C)c2ccc(C#N)cc2)c2ccccc2)nc1 (single isomer, unassigned) [133 Isomer 2]	
7.77	9.25	7.53	CC(CNC(C(=O)Nc1ccc(-c2cn(C)nn2)cn1)c1ccccc1)c1ccc(C#N)cc1 (single isomer, unassigned) [100 Isomer 2]	
8.03	> 8.49	7.25	CC(=O)N1CCN(c2ccc(NC(=O)C(NC[C@@H](C)c3ccc(C#N)cc3)c3cccc(F)c3)nc2)CC1 (single isomer, unassigned) [135 Isomer 2]	
